Assay [1] concerns the target T1, Adenosine deaminase (Bos taurus, UniProt P56658).
T1 sequence (P56658 whole entry): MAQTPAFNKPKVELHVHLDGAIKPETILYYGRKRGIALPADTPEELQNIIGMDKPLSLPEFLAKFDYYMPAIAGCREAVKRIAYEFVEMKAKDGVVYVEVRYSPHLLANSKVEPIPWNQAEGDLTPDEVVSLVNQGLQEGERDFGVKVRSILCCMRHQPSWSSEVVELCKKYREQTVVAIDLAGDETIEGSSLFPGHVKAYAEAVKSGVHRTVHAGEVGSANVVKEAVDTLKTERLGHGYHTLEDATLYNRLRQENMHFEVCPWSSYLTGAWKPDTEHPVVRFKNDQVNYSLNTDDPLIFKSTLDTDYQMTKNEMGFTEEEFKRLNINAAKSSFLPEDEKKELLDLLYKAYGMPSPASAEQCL
Put plainly: Ability to inhibit calf intestinal adenosine deaminase (ADA).

A short description of assay [2]: Upper limit of relative enzyme affinity of compound to the substrate.
Assay [3] addresses T1, Adenosine deaminase. Put plainly: Ability to inhibit calf intestinal adenosine deaminase (ADA); No data.
Assay [4] concerns the target T2, Adenosine deaminase (Bos taurus) (UniProt P56658).
T2 sequence (whole entry): T1 sequence (P56658 whole entry)

Each structure is given as a SMILES string.

Broadly, the Ki is the equilibrium dissociation constant of an inhibitor or competing ligand from its target. High values mean lower affinity, low ones higher affinity. `CCCCCCC(C(C)O)n1cnc2cncnc21` (stereo unspecified): the affinity in assay [1] corresponds to a Ki of 680 nM. In addition, the Km/Ki in assay [2] came to 36. In turn, `CCCCCCC(C(C)O)n1cnc2c1N=CNC2CO` (stereo unspecified) came in with a Ki in assay [3] of 12 µM. Also, the Km/Ki in assay [2] was 2.1. In the case of `CCCCCC[C@@H]([C@@H](C)O)n1cnc2c(N)ncnc21` [EHNA], the Ki in assay [3] was 0.0013 µM.

`OC[C@H]1O[C@@H](n2cnc3c2N=CNC[C@H]3O)C[C@@H]1O` gave an REA in assay [4] of 2.8e+06.

The record behind these values is ChEMBL document CHEMBL1122062, “Inhibitors of adenosine deaminase. Studies in combining high-affinity enzyme-binding structural units. erythro-1,6-Dihydro-6-(hydroxymethyl)-9-(2-hydroxy-3-nonyl)purine and erythro-9-(2-hydroxy-3-nonyl)purine” (J Med Chem, 1982).
